Each structure is given as a SMILES string. pIC50: −log10 of the molar value. Read-outs that look alike come from different tables or passages of the source.

A word on the pIC50: it is the negative decadic logarithm of the IC50, by convention in mol/L. Lower therefore signals a high IC50.

The subject of this test is store-operated Ca^2+ entry in PLP-B lymphocytes. In words: Store-operated Ca2+ entry after thapsigargin depletion of ER Ca2+ stores in PLP-B lymphocytes. Type of test: cell-based. How it is done: The effects of the molecules developed were tested on PLP-B lymphocytes. Store-operated Ca^2+ entry was induced by depletion of Endoplasmic Reticulum Ca^2+ stores (ER Ca^2+ stores) with thapsigargin (Tg) in a Ca^2+-free medium and measured following the addition of 1.8 mM of CaCl2) in the extracellular medium. The results are compared to the results obtained for known SOCE inhibitors SKF-96365, GSK-7975A, Synta 66.

[1] abbreviates: Lymphocyte, PLP-B lymphocytes, % of inhibition (−) or activation, DMSO control 100%, read-out: Effect on amplitude of SOCE Peak.
The mark [2] stands for this setting: Lymphocyte, thapsigargin (Tg) peak, PLP-B lymphocytes, % of inhibition (−) or activation, read-out: Effect on amplitude of Tg Peak.
Where [3] appears, read: Lymphocyte, 100 μM, PLP-B lymphocytes, % of inhibition (−) or activation, DMSO control 100%, read-out: Effect on amplitude of SOCE Peak.
Setting [4] is: Lymphocyte, 100 μM, thapsigargin (Tg) peak, PLP-B lymphocytes, % of inhibition (−) or activation, read-out: Effect on amplitude of Tg Peak.

With `CS(=O)(=O)Oc1ccc(Cn2cnc3ccccc32)cc1` [8αa, 4-((1H-Benzo[d]imidazol-1-yl)methyl)phenyl methanesulfonate], the inhibition at 10 µM by setting is: under setting [1], 20%; under setting [2], -1%. In addition, the inhibition at 50 µM was 9% under setting [1] and -5% under setting [2]. Also, the inhibition at 100 µM was found to be 23% under setting [3] and 7% under setting [4].

As for `c1ccc(OCCOc2ccc(CCn3cnc4ccccc43)cc2)cc1` [6αae DAD 4-569], the inhibition at 10 µM by setting is: under setting [1], -7.5%; under setting [2], 11.3%. Also, the inhibition at 50 µM by setting is: under setting [1], -13.1%; under setting [2], 7.6%. In addition, the inhibition at 100 µM by setting is: under setting [3], 12.4%; under setting [4], 12%.

For `CS(=O)(=O)Oc1ccc(Cn2c(C(F)(F)F)nc3ccccc32)cc1` [8αc, 4-((2-(Trifluoromethyl)-1H-benzo[d]imidazol-1-yl)methyl)phenyl methane sulfonate], the inhibition at 10 µM runs as follows: under setting [1], 14%; under setting [2], -10%. The inhibition at 50 µM is, setting by setting: under setting [1], 9%; under setting [2], -10%. Further, the inhibition at 100 µM runs as follows: under setting [3], 24%; under setting [4], 32%.

For the compound `Oc1ccc(Cn2c(C(F)(F)F)nc3ccccc32)cc1` [9αc, 1-(4-hydroxyphenylmethyl)-2-trifluoromethyl-1H-Benzo[d]imidazol], the inhibition at 10 µM is, setting by setting: under setting [1], 23%; under setting [2], 6%. Moreover, the inhibition at 50 µM under setting [1] was 16% and the inhibition at 50 µM under setting [2] was -1%. Moreover, the inhibition at 100 µM under setting [3] came out at 33% and the inhibition at 100 µM under setting [4] is -6%.

Turning to `COc1ccc(CCCOc2ccc(CCn3cncn3)cc2)cc1` [Compound 6βf], the “Effect on amplitude of SOCE peak” value (100 μM, PLP-B lymphocytes, % of inhibition (−) or activation, DMSO control 100%) is listed as −10.0%. Also, under setting [2], the inhibition at 10 µM turned out to be 13% and the inhibition at 50 µM amounted to 18%.

In the case of `COc1ccc(COc2ccc(CCn3ccc(C(F)(F)F)n3)cc2)cc1` [6βq DAD 2.333], the inhibition at 50 µM under setting [1] was determined as 5%. Under setting [3], the inhibition at 100 µM amounted to 37%.

For `c1ncn(CCc2ccc(OC3CCCCO3)cc2)n1` (stereo not shown) [11βa, 1-(4-((Tetrahydro-2H-pyran-2-yl)oxy)phenethyl)-1H-1,2,4-triazole], the inhibition at 10 µM is 32% under setting [1] and 20% under setting [2]. Moreover, the inhibition at 50 µM is, setting by setting: under setting [1], 31%; under setting [2], 17%. The inhibition at 100 µM runs as follows: under setting [3], 16%; under setting [4], 3%.

As for `FC(F)(F)c1ncn(CCc2ccc(OCCCc3ccccc3)cc2)n1` [6βi DAD 3.475], the inhibition at 50 µM came to 13% under setting [1] and 6% under setting [2]. Moreover, the inhibition at 100 µM by setting is: under setting [3], 43%; under setting [4], 7%.

Consider `COc1ccc(CCCOc2ccc(CCn3cccn3)cc2)cc1` [Compound 6βp], for which, under setting [1], the inhibition at 1 µM is -16%. Under “Lymphocyte, SOCE in PLP-B lymphocytes, average of three assays, ±0.5 μM”, this compound showed a pIC50 of 4.60.

`Oc1ccc(Cn2cnc3cc(F)ccc32)cc1` [9αe]: the inhibition at 10 µM is -6% under setting [1] and 3% under setting [2]. The inhibition at 50 µM reads like this: under setting [1], 5%; under setting [2], 8%. The inhibition at 100 µM amounted to 21% under setting [3] and 15% under setting [4].

`COc1ccc(CCOc2ccc(CCn3c(C(F)(F)F)nc4ccccc43)cc2)cc1` [6αc DAD 4-546, 1-(4-(4-Methoxyphenethoxy)phenethyl)-2-trifluoromethyl-1H-benzo[d]imidazole]: the inhibition at 50 µM is, setting by setting: under setting [1], 30%; under setting [2], 18%. Besides, the inhibition at 100 µM was determined as 26% under setting [3] and 18% under setting [4].

As to `FC(F)(F)c1cc(C(F)(F)F)n(CCc2ccccc2OCCc2ccccc2)n1` [6βaa DAD 3.535], the inhibition at 10 µM worked out at 18% under setting [1] and 8% under setting [2]. Further, the inhibition at 50 µM runs as follows: under setting [1], 20%; under setting [2], 4%. The inhibition at 100 µM under setting [3] was found to be 29% and the inhibition at 100 µM under setting [4] came out at 11%.

For the compound `Oc1ccc(Cn2cnc3ccccc32)cc1` [9αa, 1-(4-hydroxyphenylmethyl)-1H-Benzo[d]imidazol], the inhibition at 10 µM was -2% under setting [1] and -13% under setting [2]. The inhibition at 50 µM turned out to be 4% under setting [1] and 1% under setting [2]. Also, the inhibition at 100 µM by setting is: under setting [3], -3%; under setting [4], 12%.

For `Fc1ccc(CCOc2ccc(CCn3cnc4ccccc43)cc2)cc1` [6αd DAD 4-568], the inhibition at 10 µM runs as follows: under setting [1], 7.8%; under setting [2], 8.5%. Also, the inhibition at 50 µM reads like this: under setting [1], -1.3%; under setting [2], 5.3%. Further, the inhibition at 100 µM is, setting by setting: under setting [3], 64%; under setting [4], 15.1%.

Consider `CS(=O)(=O)Oc1ccc(Cn2cncn2)cc1` [8βb, 4-((1H-1,2,4-Triazol-1-yl)methyl)phenyl methanesulfonate], for which, under setting [1], the inhibition at 0.1 µM was determined as 19%, the inhibition at 1 µM is 23%, the inhibition at 10 µM came out at 27% and the inhibition at 50 µM turned out to be 41%. For the same compound, under setting [2], the inhibition at 0.1 µM came out at 23%, the inhibition at 1 µM worked out at 9%, the inhibition at 10 µM was 3% and the inhibition at 50 µM was -2%. For the same compound, the inhibition at 100 µM under setting [3] turned out to be 35%. Further, the inhibition at 100 µM under setting [4] came out at 6%.

For `CS(=O)(=O)Oc1ccc(Cn2nc(C(F)(F)F)cc2C(F)(F)F)cc1` [8βc], the inhibition at 10 µM by setting is: under setting [1], 12%; under setting [2], -4%. The inhibition at 50 µM under setting [1] turned out to be 22% and the inhibition at 50 µM under setting [2] turned out to be 2%. Also, the inhibition at 100 µM was 31% under setting [3] and 21% under setting [4].

Regarding `COc1ccc(CCOc2ccc(CCn3cccn3)cc2)cc1` [6βn DAD 2.307], under setting [1], the inhibition at 10 µM was -6.5% and the inhibition at 50 µM turned out to be 7.2%. The inhibition at 100 µM under setting [3] was found to be 62%.

`COc1ccc(CCOc2cccc(CCn3cnc4ccccc43)c2)cc1` [6αp DAD 4-552]: the inhibition at 50 µM reads like this: under setting [1], 29%; under setting [2], 15%. Besides, the inhibition at 100 µM runs as follows: under setting [3], 71%; under setting [4], 7%.

For `COc1ccc(CCCOc2ccc(CCn3cnc4ccccc43)cc2)cc1` [6αn DAD 3-474], the inhibition at 1 µM is, setting by setting: under setting [1], -1%; under setting [2], 11%. For the same compound, the inhibition at 10 µM under setting [1] is -16% and the inhibition at 10 µM under setting [2] is 5%. Moreover, the inhibition at 50 µM under setting [1] was -4% and the inhibition at 50 µM under setting [2] is -5%. The inhibition at 100 µM under setting [3] stood at 25% and the inhibition at 100 µM under setting [4] was 3%.

As to `c1ccc(CCCOc2ccc(CCn3cnc4ccccc43)cc2)cc1` [6αm DAD 3-475], the inhibition at 50 µM is, setting by setting: under setting [1], 4%; under setting [2], -7%. For the same compound, the inhibition at 100 µM was 77% under setting [3] and -7% under setting [4].

`FC(F)(F)c1ccn(CCc2ccc(OCCCc3ccccc3)cc2)n1` [6βt DAD 3.363]: the inhibition at 50 µM under setting [1] turned out to be 7.7%. The inhibition at 100 µM under setting [3] was determined as 19.1%.

The values are drawn from patent publication US12686664B2, “SOCE inhibitors and therapeutic uses thereof” (Institut National de la Santé et de la Recherche Médicale …, priority 2020, dated 2026).
